Measured values taken from patent US11072635B2, “Macrocyclic broad spectrum antibiotics” (priority 2015, dated 2021).
Converted amounts (≈) assume the structure as drawn. Read-outs that look alike come from different tables or passages of the source.

Tests used:
[1] = tested on: Methicillin Resistant Staphylococcus aureus strain USA 300, NRS384 (S. aureus); experiment: Minimum inhibitory concentration, broth micro-dilution (CLSI); type: cell-based
Protocol: (§1) In vitro antimicrobial activity of each compound was determined by measuring minimal inhibitor concentrations (MICs) using the broth micro-dilution technique as approved by the Clinical and Laboratory Standards Institute (CLSI) (Methods for Dilution Antimicrobial Susceptibility Tests for Bacteria that Grow Aerobically; Approved Standard—Eighth Edition. CLSI document M07-A8. Wayne, Pa.: Clinical and Laboratory Standards; 2009). Antibacterial activity was measure against three strains of bacteria: a Methicillin Resistant Staphylococcus aureus strain USA 300, NRS384 (S. aureus); a strain of Escherichia coli MC4100 harboring the IMP4213 (E. coli IMP), which results in increased outer-membrane permeability (B Martin and Silhavy T. Imp/OstA is required for cell envelope biogenesis in Escherichia coli. (2002) Molecular Microbiology, 45(5), 1289-1302), and Escherichia coli ATCC 25922 (E. coli), a clinically relevant Gram-negative strain. Cells were inoculated onto plates of Trypyticase Soy Agar or Luria Agar respectively and grown at 35° C. for 20 hours. Inocula suspensions were prepared by scraping cells into 1 mL of testing media (cation adjusted Mueller Hinton Broth supplemented with 0.002% v/v Tween-80) and diluting to a final OD600 nm of 0.01.
(§2) Test compounds were prepared in DMSO at a concentration of 10 mg/mL. […] In protocol 2, the compound stocks were diluted into testing media at a concentration of 4 μg/mL and serial 2-fold dilutions were made in the same media, in 96-well U bottom microtiter dishes, for a total of 10 compound concentrations. In protocol 3, compound stocks were diluted into testing media at a concentration of 0.5 μg/mL, with serial 2-fold dilutions conducted as described above. […] Inocula suspensions were added to the 2-fold serial dilutions of test compounds to a final density of OD OD600 nm of 0.0005 and incubated at 35° C. for 22 hours.

[2] = tested on: Escherichia coli MC4100 harboring the IMP4213 (E. coli IMP); experiment: microbe, parasite or virus in culture; type: cell-based; conditions: 22 h, read-out: MIC (μg/mL) E. coli IMP
Protocol: as §1, §2

[3] = tested on: Escherichia coli ATCC 25922 (E. coli); experiment: Minimum inhibitory concentration, broth micro-dilution (CLSI); type: cell-based; conditions: read-out: MIC (μg/mL) E. coli
Protocol: Cells were inoculated onto plates of Trypyticase Soy Agar or Luria Agar respectively and grown at 35° C. for 20 hours. Inocula suspensions were prepared by scraping cells into 1 mL of testing media (cation adjusted Mueller Hinton Broth supplemented with 0.002% v/v Tween-80) and diluting to a final OD600 nm of 0.01.
as §2

[4] = biological target: T1, SpsB (Staphylococcus aureus signal peptidase) (Staphylococcus aureus, UniProt P0A070); experiment: Whole-cell SpsB biochemical screening assay (kinetic fluorogenic enzyme activity)
T1 construct: a suspension of Staphylococcus aureus cells as a source of SpsB instead of recombinant SpsB protein; endogenous in cells; host or cells: S. aureus, USA300 background, overexpressing SpsB (whole-cell suspension)
T1 sequence (P0A070 whole entry): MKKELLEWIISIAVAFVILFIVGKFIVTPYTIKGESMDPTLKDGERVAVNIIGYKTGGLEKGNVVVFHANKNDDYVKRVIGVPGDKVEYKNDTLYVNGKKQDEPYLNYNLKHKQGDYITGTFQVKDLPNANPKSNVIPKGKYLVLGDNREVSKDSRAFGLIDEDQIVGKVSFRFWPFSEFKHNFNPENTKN
Protocol: A kinetic fluorogenic enzyme activity assay was used to assess inhibition of SpsB (Staphylococcus aureus signal peptidase) activity and IC50s were determined. This assay uses a suspension of Staphylococcus aureus cells as a source of SpsB instead of recombinant SpsB protein.
Cell preparation: Luria broth (LB) was inoculated with S. aureus (USA300 background, overexpressing SpsB) and shaken at 37° C. until an OD600 nm of 1.5-2.0 was reached (˜4 hr). The culture was then diluted to an OD600 nm of 1.0 with LB, aliquoted and centrifuged at 10,000×g for 2 mins. The supernatant was removed and the pellet was resuspended in phosphate buffer (1×PBS, 12.5 mg/L MgCl2, 25 mg/L CaCl2, 0.1% Tween-80) to an OD600 nm of 0.5, then centrifuged again at 10,000×g for 2 mins. The supernatant was removed and the pellets were frozen at −20° C.
Test compounds were prepared in DMSO at a concentration of 10 mg/mL. These compound stocks were diluted into DMSO to a concentration of 25 μg/mL and serial 3-fold dilutions were made in DMSO, for a total of 11 compound concentrations. 20 nL of each compound solution was pre-spotted into a white 384-well plate (50 μL/well polypropylene, Nunc) using acoustic fluid transfer (Echo).
Frozen S. aureus pellets were resuspended in assay buffer (1×PBS, 12.5 mg/L MgCl2, 25 mg/L CaCl2, 0.1% Tween-80) to an OD600 nm of 0.05, then mixed 1:1 (v/v) with 20 μM substrate ((Dabcyl)βAla-KPAKAAE(Edans)) in assay buffer, and this solution was added (20 μL/well) to the 384-well plate that had been pre-spotted with compound. Fluorescence intensity was then immediately read kinetically for 30 minutes with 2 minute read intervals to monitor cleavage of the internally quenched peptide substrate (excitation wavelength=340 nm, emission wavelength=490 nm, Molecular Devices Spectramax M5). Reaction rate (slope) was plotted against inhibitor concentration to derive the IC50.

[5] = MRSA / NRS 384 / USA300, 22 h, read-out: MIC (μg/mL) S. aureus
[6] = MRSA / NRS 384 / USA300, MRSA USA 300, NRS384, 35° C., 22 hours, cation adjusted Mueller Hinton Broth with 0.002% Tween-80, read-out: MIC (μg/mL) S. aureus
[7] = ATCC25922, E. coli ATCC 25922, 35° C., 22 hours

Row | SMILES | MIC [1, 5] | MIC [2] | MIC ([3]; ATCC25922, 22 h) | IC50 [4] | MIC [1, 6] | MIC [3, 7]
1 | CCCCCCCCc1ccc(C(=O)N[C@@H](CCN)C(=O)N(C)[C@@H]2C(=O)N[C@@H](C)C(=O)N[C@H](C(=O)NOC)Cc3ccc(OCCN)c(c3)-c3cc2ccc3OCCN)c(C)c1 [Compound 113] | 0.063 µg/mL (≈ 0.0733 µM) | 0.047 µg/mL (≈ 0.0547 µM) | 4 µg/mL (≈ 4.66 µM) | 1.2 nM |  | 
2 | CCCCCCCCCCCCCC(=O)N[C@@H](CCCCN)C(=O)N(C)[C@@H]1C(=O)N[C@@H](C)C(=O)N[C@H](C(=O)NCCC#N)Cc2ccc(OCCN)c(c2)-c2cc1ccc2OCCN [Compound 120] |  | 0.5 µg/mL (≈ 0.562 µM) |  | 18 nM | 2 µg/mL (≈ 2.25 µM) | 16 µg/mL (≈ 18 µM)
3 | CCCCc1ccc(-c2ccc(C(=O)N[C@@H](CCCCN)C(=O)N(C)[C@@H]3C(=O)N[C@@H](C)C(=O)N[C@H](C(=O)Nc4ccncc4C#N)Cc4ccc(OCCN)c(c4)-c4cc3ccc4OCCN)cc2)cc1 [Compound 121] |  | 0.25 µg/mL (≈ 0.259 µM) |  | 12 nM | 4 µg/mL (≈ 4.14 µM) | 8 µg/mL (≈ 8.29 µM)
4 | CCCCc1ccc(-c2ccc(C(=O)N[C@@H](CN)C(=O)N(C)[C@@H]3C(=O)N[C@@H](C)C(=O)N[C@H](c4nnn[nH]4)Cc4ccc(OCCN)c(c4)-c4cc3ccc4OCCN)cc2)cc1 [Compound 123] |  | < 0.063 µg/mL |  | 15 nM | 1.5 µg/mL (≈ 1.77 µM) | 8 µg/mL (≈ 9.46 µM)
5 | CCCCc1ccc(-c2ccc(C(=O)N[C@@H](CN)C(=O)N(C)[C@@H]3C(=O)N[C@@H](C)C(=O)N[C@H](C#N)Cc4ccc(OCCN)c(c4)-c4cc3ccc4OCCN)cc2)cc1 [Compound 124] |  | 0.5 µg/mL (≈ 0.623 µM) |  | 14 nM | 1 µg/mL (≈ 1.25 µM) | 8 µg/mL (≈ 9.96 µM)
6 | CCCCc1ccc(-c2ccc(C(=O)N[C@@H](CN)C(=O)N(C)[C@@H]3C(=O)N[C@@H](C)C(=O)N[C@H](c4noc(=O)[nH]4)Cc4ccc(OCCN)c(c4)-c4cc3ccc4OCCN)cc2)cc1 [Compound 125] |  | 0.036 µg/mL (≈ 0.0418 µM) |  | 1 nM | 0.38 µg/mL (≈ 0.441 µM) | 0.5 µg/mL (≈ 0.58 µM)
7 | CCCCc1ccc(-c2ccc(C(=O)N[C@@H](CN)C(=O)N(C)[C@@H]3C(=O)N[C@@H](C)C(=O)N[C@H](c4n[nH]c(=O)[nH]4)Cc4ccc(OCCN)c(c4)-c4cc3ccc4OCCN)cc2)cc1 [Compound 126] |  | 0.031 µg/mL (≈ 0.036 µM) |  | 6.2 nM | 4 µg/mL (≈ 4.65 µM) | 1 µg/mL (≈ 1.16 µM)
8 | CCCCc1ccc(-c2ccc(C(=O)N[C@@H](CN)C(=O)N(C)[C@@H]3C(=O)N[C@@H](C)C(=O)N[C@H](CC#N)Cc4ccc(OCCN)c(c4)-c4cc3ccc4OCCN)cc2)cc1 [Compound 127] |  | 2 µg/mL (≈ 2.45 µM) |  | 2.7 nM | 2 µg/mL (≈ 2.45 µM) | 32 µg/mL (≈ 39.2 µM)
9 | CCCCc1ccc(-c2ccc(C(=O)N[C@@H](CCCN)C(=O)N(C)[C@@H]3C(=O)N[C@@H](C)C(=O)N[C@H](C(=O)NS(N)(=O)=O)Cc4ccc(OCCN)c(c4)-c4cc3ccc4OCCN)cc2)cc1 [Compound 128] | 1.5 µg/mL (≈ 1.62 µM) | 0.012 µg/mL (≈ 0.0129 µM) | 0.75 µg/mL (≈ 0.808 µM) | 1.5 nM |  | 
10 | C#CCNC(=O)[C@@H]1Cc2ccc(OCCN)c(c2)-c2cc(ccc2OCCN)[C@H](N(C)C(=O)[C@H](CCCN)NC(=O)c2ccc(-c3ccc(CCCC)cc3)cc2)C(=O)N[C@@H](C)C(=O)N1 [Compound 129] | 0.5 µg/mL (≈ 0.564 µM) | 0.094 µg/mL (≈ 0.106 µM) | 4 µg/mL (≈ 4.51 µM) | 2.2 nM |  | 
11 | CCCCCCCCc1ccc(C(=O)N[C@@H](CCN)C(=O)N(C)[C@@H]2C(=O)N[C@@H](C)C(=O)N[C@H](c3noc(=O)[nH]3)Cc3ccc(OCCN)c(c3)-c3cc2ccc3OCCN)c(C)c1 [Compound 131] |  | 0.0078 µg/mL (≈ 0.00896 µM) |  | 2.1 nM | 0.094 µg/mL (≈ 0.108 µM) | 0.5 µg/mL (≈ 0.575 µM)
12 | CCCCCCCCc1ccc(C(=O)N[C@@H](CCN)C(=O)N(C)[C@@H]2C(=O)N[C@@H](C)C(=O)N[C@H](c3noc(=S)[nH]3)Cc3ccc(OCCN)c(c3)-c3cc2ccc3OCCN)c(C)c1 [Compound 133] |  | 0.094 µg/mL (≈ 0.106 µM) |  | 2.3 nM | 1 µg/mL (≈ 1.13 µM) | 8 µg/mL (≈ 9.03 µM)
13 | CCCCc1ccc(-c2ccc(C(=O)N[C@@H](CCCN)C(=O)N(C)[C@@H]3C(=O)N[C@@H](C)C(=O)N[C@H](C(=O)NC#N)Cc4ccc(OCCN)c(c4)-c4cc3ccc4OCCN)cc2)cc1 [Compound 134] |  | 0.13 µg/mL (≈ 0.149 µM) |  | 7.1 nM | 1 µg/mL (≈ 1.14 µM) | 4 µg/mL (≈ 4.58 µM)
14 | CCCCc1ccc(-c2ccc(C(=O)N[C@@H](CCCN)C(=O)N(C)[C@@H]3C(=O)N[C@@H](C)C(=O)N[C@H](C(=O)NO)Cc4ccc(OCCN)c(c4)-c4cc3ccc4OCCN)cc2)cc1 [Compound 136] | 0.38 µg/mL (≈ 0.439 µM) | 0.13 µg/mL (≈ 0.15 µM) | 2 µg/mL (≈ 2.31 µM) | 1.2 nM |  | 
15 | CCCCc1ccc(-c2ccc(C(=O)N[C@@H](CCCN)C(=O)N(C)[C@@H]3C(=O)N[C@@H](C)C(=O)N[C@H](C(=O)NN)Cc4ccc(OCCN)c(c4)-c4cc3ccc4OCCN)cc2)cc1 [Compound 137] | 0.5 µg/mL (≈ 0.579 µM) | 0.094 µg/mL (≈ 0.109 µM) | 3 µg/mL (≈ 3.47 µM) | 1.4 nM |  | 
16 | CCCCc1ccc(-c2ccc(C(=O)N[C@@H](CCCN)C(=O)N(C)[C@@H]3C(=O)N[C@@H](C)C(=O)N[C@H](c4ncc(C#N)[nH]4)Cc4ccc(OCCN)c(c4)-c4cc3ccc4OCCN)cc2)cc1 [Compound 139] |  | 1.5 µg/mL (≈ 1.67 µM) |  | 110 nM | 1 µg/mL (≈ 1.11 µM) | 24 µg/mL (≈ 26.8 µM)
17 | CCCCc1ccc(-c2ccc(C(=O)N[C@@H](CCCN)C(=O)N(C)[C@@H]3C(=O)N[C@@H](C)C(=O)N[C@H](c4ncc(C(F)(F)F)[nH]4)Cc4ccc(OCCN)c(c4)-c4cc3ccc4OCCN)cc2)cc1 [Compound 140] |  | 1 µg/mL (≈ 1.06 µM) |  | 370 nM | 4 µg/mL (≈ 4.25 µM) | 32 µg/mL (≈ 34 µM)
18 | CCCCCCCCCCCCCC(=O)N[C@@H](CCN)C(=O)N(C)[C@@H]1C(=O)N[C@@H](C)C(=O)N[C@H](c2noc(=O)[nH]2)Cc2ccc(OCCN)c(c2)-c2cc1ccc2OCCN [Compound 143] |  | 0.023 µg/mL (≈ 0.0271 µM) |  | 1.5 nM | 0.13 µg/mL (≈ 0.153 µM) | 0.5 µg/mL (≈ 0.588 µM)
